Data published in patent US7468253B2, “Method for multiple chemokine receptor screening for antagonists using RAM assay” (Chemocentryx, Inc., priority 2001, dated 2008).
Values belong to the substance of their own block, whether it stands above or below them.

Columns and labels:
[1] = molecular target: T1, CCR1 (Homo sapiens, UniProt P32246); assay: Conventional cell migration assay, MIP-1α dose response in THP-1 cells; format: cell-based; conditions: 90 minutes, FIG. 10
T1 construct: THP-1 cells expressing cell surface CCR1 and CCR2; host or cells: THP-1 (human monocytic)
T1 sequence (P32246 1-355): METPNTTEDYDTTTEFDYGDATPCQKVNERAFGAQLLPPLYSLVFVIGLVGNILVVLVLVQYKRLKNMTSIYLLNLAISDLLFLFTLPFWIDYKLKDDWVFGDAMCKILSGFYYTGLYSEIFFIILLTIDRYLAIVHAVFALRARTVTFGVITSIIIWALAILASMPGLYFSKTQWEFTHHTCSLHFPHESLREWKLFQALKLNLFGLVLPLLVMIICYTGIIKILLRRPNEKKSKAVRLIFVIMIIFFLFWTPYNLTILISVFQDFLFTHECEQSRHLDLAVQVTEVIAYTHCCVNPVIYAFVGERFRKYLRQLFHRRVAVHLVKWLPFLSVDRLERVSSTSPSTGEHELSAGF
Experimental: (§1) To obtain a dose response curve for THP-1 cells expressing cell surface CCR1 and CCR2, a conventional cell migration assay was used (Bacon et al., 1988; Penfold et al., 1999). Cells were harvested by centrifugation and then resuspended in cell migration buffer (Hank's balanced salt solution (HBSS)/0.1% bovine serum albumin (BSA)) at 0.1×10^6 cells per well. The CCR1 and CCR2 ligands MIP-1α and MCP-1, respectively, were prepared in the concentration series (10 nM to 10 μM) by serial dilution in cell migration buffer. At low concentrations, MIP-1α and MCP-1 activate cell migration of CCR1 and CCR2 bearing activated cells, respectively.
(§2) MIP-1α and MCP-1 were loaded in the bottom chamber of a ChemoTx® cell migration apparatus (5 μm pore polycarbonate polyvinylpyrrolidone-coated filters (Neuroprobe; Gaithersburg, Md.); 29 μl/well) and 20 μl of cell suspension (100K cell per well) was placed in the upper chamber. The cells were incubated at 37° C. for 90 minutes. The assay was terminated by removing the cells from the upper chamber and membrane surface using a rubber scraper. The cells that migrated to the lower chamber were quantified by CyQuant assay (Molecular Probes; Eugene, Oreg.), a fluorescent dye method that measures nucleic acid content. […]

[2] = test system: THP-1 cells; assay: Effect of full RAM concentration of MIP-1α on MCP-1-induced migration; format: cell-based, human; conditions: 100 nM MIP-1α, FIG. 11A
Experimental: An effect of 100 nM of MIP-1α on MCP-1 was studied by comparing migration levels of THP-1 cells as activated by MCP-1 with THP-1 cell migration levels as activated by incubation with MCP-1 and 100 nM MIP-1α.
(§3) 100 nM MIP-1α with MCP-1 at various concentrations were loaded in the bottom chamber of a ChemoTx® cell migration apparatus (5 μm pore polycarbonate polyvinylpyrrolidone-coated filters (Neuroprobe; Gaithersburg, Md.); 29 μl/well) and 20 μl of cell suspension (100K cell per well) was placed in the upper chamber. The cells were incubated at 37° C. for 90 minutes. The assay was terminated by removing the cells from the upper chamber and membrane surface using a rubber scraper. The cells that migrated to the lower chamber were quantified by CyQuant assay (Molecular Probes; Eugene, Oreg.), a fluorescent dye method that measures nucleic acid content.

[3] = molecular target: T2, CXCR4 (Homo sapiens, UniProt P61073); assay: Conventional cell migration assay, SDF-1α dose response (determining inhibitory concentration); format: cell-based; conditions: CXCR4-bearing activated lymphocytes, 150 minutes
T2 construct: endogenous in cells
T2 sequence (P61073 whole entry): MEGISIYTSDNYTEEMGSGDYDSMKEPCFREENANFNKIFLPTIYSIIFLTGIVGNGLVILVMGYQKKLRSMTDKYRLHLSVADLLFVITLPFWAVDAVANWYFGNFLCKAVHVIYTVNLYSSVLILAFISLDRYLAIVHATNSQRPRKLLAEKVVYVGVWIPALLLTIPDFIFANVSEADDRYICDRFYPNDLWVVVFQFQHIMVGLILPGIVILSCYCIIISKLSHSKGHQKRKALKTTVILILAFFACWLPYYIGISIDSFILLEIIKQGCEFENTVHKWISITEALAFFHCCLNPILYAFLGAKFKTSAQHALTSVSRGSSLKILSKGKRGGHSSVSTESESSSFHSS
Experimental: To obtain a dose response curve for activated lymphocytes expressing cell surface CXCR4, a conventional cell migration assay was used (Bacon et al., 1988; Penfold et al., 1999). The activated lymphocytes were prepared by culturing lymphocytes in the presence of interleukin-2 (IL-2) and phytohemeagglutinin (PHA). To isolate peripheral blood lymphocytes (i.e., a thin layer of white blood cells called the buffy coat), blood samples from the Stanford blood center were centrifuged for 10 minutes at 1200 rpm leaving a concentrated fraction containing predominantly white blood cellular fraction. Next, peripheral blood mononuclear cells (PBMC) were prepared by the standard Ficoll-Pague (Amersham Biosciences) gradient centrifugation method. Following the centrifugation, PBMC were removed and resuspended in MACS (Dulbecco's Phosphate Buffered Saline, DPBS; 1% Bovine Serum Albumin, BSA) buffer. After removal of the PMBCs, the monocytes were separated by a CD14 positive selection column mounted on an AutoMac (Multenyi Biotech). […]
The CXCR4 ligand stromal-derived factor (SDF-1α) was prepared in a concentration series (0.1 nM to […]) by serial dilution in cell migration buffer. […] The cells that migrated to the lower chamber were quantified by the CyQuant assay (Molecular Probes; Eugene, Oreg.), a fluorescent dye method that measures nucleic acid content. […]

[4] = molecular target: T3, CCR2 (Homo sapiens, UniProt P41597); assay: Conventional cell migration assay, MCP-1 dose response in THP-1 cells; format: cell-based; conditions: 90 minutes, FIG. 10
T3 construct: THP-1 cells expressing cell surface CCR1 and CCR2; host or cells: THP-1 (human monocytic)
T3 sequence (P41597 1-360 isoform P41597-2): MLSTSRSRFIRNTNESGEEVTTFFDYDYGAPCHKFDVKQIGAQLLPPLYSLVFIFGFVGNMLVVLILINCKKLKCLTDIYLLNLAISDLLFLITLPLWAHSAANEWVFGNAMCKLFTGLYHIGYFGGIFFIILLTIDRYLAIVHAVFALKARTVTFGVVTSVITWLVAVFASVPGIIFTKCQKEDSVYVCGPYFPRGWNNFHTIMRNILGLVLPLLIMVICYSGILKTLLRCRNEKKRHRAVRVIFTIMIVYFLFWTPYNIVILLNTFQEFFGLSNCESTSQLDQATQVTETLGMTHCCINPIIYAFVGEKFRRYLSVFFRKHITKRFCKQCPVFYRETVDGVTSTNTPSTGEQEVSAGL
Experimental: as §1, §2

[5] = test system: THP-1 cells; assay: Effect of full RAM concentration of MCP-1 on MIP-1α-induced migration; format: cell-based, human; conditions: 100 nM MCP-1, THP-1 cells, FIG. 11B
Experimental: An effect of 100 nM of MCP-1 on MIP-1α was studied by comparing migration levels of THP-1 cells as activated by MIP-1α with THP-1 cell migration levels as activated by incubation with MIP-1α and 100 nM MCP-1.
as §3, with “nM MCP-1 with” for “nM”, “MIP-1α” for “MIP-1α with MCP-1”

- concentration determined to be completely inhibitory for cell migration [1]: 150 nM
Substance: MIP-1α: CCR1 ligand, chemokine purchased from PeproTech
- effect on MCP-1-induced cell migration [2]: no significant effect

- concentration determined to be completely inhibitory for cell migration [3]: 1 µM
Substance: SDF-1α

- concentration determined to be completely inhibitory for cell migration [4]: 150 nM
Substance: MCP-1: CCR2 ligand, chemokine purchased from PeproTech
- effect on MIP-1α-induced cell migration [5]: no significant effect
